Data from ChEMBL document CHEMBL3259765, “ProTides of N-(3-(5-(2'-deoxyuridine))prop-2-ynyl)octanamide as potential anti-tubercular and anti-viral agents” (Bioorg Med Chem, 2014).
In brackets after ≈: the same amount, converted by molar mass. Activity calls are given as the source filed them. The calls are words filed in the database; no cut-off is given here.

How the values were obtained:
Human betaherpesvirus 5 [1] = experiment: Antiviral activity against Human cytomegalovirus AD169 infected in HEL cells assessed as reduction in virus-induced cytopathicity after 7 days; type: functional, organism-based
Human alphaherpesvirus 2 = experiment: Antiviral activity against Herpes simplex virus 2 G infected in HEL cells assessed as reduction in virus-induced cytopathicity after 3 days; type: functional, organism-based; conditions: Human alphaherpesvirus 2, strain G, 72 h
Escherichia coli = experiment: Antibacterial activity against Escherichia coli DH5[alpha] ATCC 53868 after overnight incubation by HT-SPOTi assay; type: functional, organism-based
Human alphaherpesvirus 3 [2] = experiment: Antiviral activity against thymidine kinase-deficient Varicella zoster virus 07-1 infected in HEL cells assessed as reduction in viral plaque formation after 5 days; type: functional, organism-based; conditions: Human alphaherpesvirus 3, 07-1, HEL, 120 h
Vaccinia virus = experiment: Antiviral activity against Vaccinia virus infected in HEL cells assessed as reduction in virus-induced cytopathicity after 3 days; type: functional, organism-based; conditions: Orthopoxvirus vaccinia
[3] = Cytotoxicity against HEL cells assessed as morphological changes after 3 to 5 days […]; type: cell-based; conditions: human
Human betaherpesvirus 5 [4] = experiment: Antiviral activity against Human cytomegalovirus Davis infected in HEL cells assessed as reduction in virus-induced cytopathicity after 7 days; type: functional, organism-based
Human alphaherpesvirus 1 [5] = experiment: Antiviral activity against thymidine kinase-positive Herpes simplex virus 1 KOS infected in HEL cells assessed as reduction in virus-induced cytopathicity after 3 days; type: functional, organism-based; conditions: Human alphaherpesvirus 1, KOS, 72 h
Human alphaherpesvirus 1 [6] = experiment: Antiviral activity against thymidine kinase-deficient ACV-resistant Herpes simplex virus 1 B-2006 infected in HEL cells assessed as reduction in virus-induced cytopathicity after 3 days; type: functional, organism-based; conditions: Human alphaherpesvirus 1, B-2006, HEL, 72 h
[7] = Cytotoxicity against HEL cells assessed as reduction in cell growth after 3 to 5 days by Coulter counting analysis; type: cell-based; conditions: human
Human alphaherpesvirus 3 [8] = experiment: Antiviral activity against thymidine kinase-positive Varicella zoster virus Oka infected in HEL cells assessed as reduction in viral plaque formation after 5 days; type: functional, organism-based; conditions: Human alphaherpesvirus 3, strain Oka vaccine, 120 h
[9] = tested on: Mycobacterium tuberculosis; experiment: Antibacterial activity against Mycobacterium tuberculosis H37Rv ATCC 27294 up to 2 weeks by HT-SPOTi assay; type: functional; conditions: H37Rv ATCC 27294, 336 h

SMILES	Activity (Human betaherpesvirus 5 [1])	EC50 (Human alphaherpesvirus 2) [µM]	Activity (Escherichia coli)	EC50 (Human alphaherpesvirus 3 [2]) [µM]	Activity (Vaccinia virus)	MCC [3] [µM]	Activity (Human betaherpesvirus 5 [4])	EC50 (Human alphaherpesvirus 1 [5]) [µM]	EC50 (Human alphaherpesvirus 1 [6]) [µM]	CC50 [7] [µM]	EC50 (Human alphaherpesvirus 3 [8]) [µM]	MIC [9] [µg/mL]
CCCCCCCC(=O)NCC#Cc1cn([C@H]2C[C@H](O)[C@@H](COP(=O)(N[C@@H](C)C(=O)OC)Oc3cccc4ccccc34)O2)c(=O)[nH]c1=O (stereo not given in full)	inactive	> 100	inactive	46	inactive	> 100	inactive	> 100	> 100	64	37	62.5 (≈ 89.5 µM)
CCCCCCCC(=O)NCC#Cc1cn([C@H]2C[C@H](O)[C@@H](COP(=O)(N[C@@H](C)C(=O)OC)Oc3ccccc3)O2)c(=O)[nH]c1=O (stereo not given in full)			inactive									> 250
CCCCCCCC(=O)NCC#Cc1cn([C@H]2C[C@H](O)[C@@H](COP(=O)(NC(C)(C)C(=O)OCc3ccccc3)Oc3ccccc3)O2)c(=O)[nH]c1=O (stereo not given in full)			inactive									> 125
CCCCCCCC(=O)NCC#Cc1cn([C@H]2C[C@H](O)[C@@H](COP(=O)(NCC(=O)OCc3ccccc3)Oc3ccccc3)O2)c(=O)[nH]c1=O (stereo not given in full)			inactive									> 250
CCCCCCCC(=O)NCC#Cc1cn([C@H]2C[C@H](O)[C@@H](CO)O2)c(=O)[nH]c1=O	inactive	> 100	inactive	> 100	inactive		inactive	> 100	> 100	> 100	> 100	> 250
CCCCCCCC(=O)NCC#Cc1cn([C@H]2C[C@H](O)[C@@H](COP(=O)(N[C@@H](C)C(=O)OCC(C)C)Oc3cccc4ccccc34)O2)c(=O)[nH]c1=O (stereo not given in full)	inactive	> 100	inactive	> 20	inactive	> 100	inactive	> 100	> 100	15	20	62.5 (≈ 84.4 µM)
CCCCCCCC(=O)NCC#Cc1cn([C@H]2C[C@H](O)[C@@H](COP(=O)(N[C@H](C)C(=O)OCc3ccccc3)Oc3ccccc3)O2)c(=O)[nH]c1=O (stereo not given in full)			inactive									125 (≈ 172 µM)
CCCCCCCC(=O)NCC#Cc1cn([C@H]2C[C@H](O)[C@@H](COP(=O)(N[C@@H](C)C(=O)OCC)Oc3cccc4ccccc34)O2)c(=O)[nH]c1=O (stereo not given in full)			inactive									125 (≈ 175 µM)
CCCCCCCC(=O)NCC#Cc1cn([C@H]2C[C@H](O)[C@@H](COP(=O)(N[C@H](C(=O)OCc3ccccc3)C(C)C)Oc3ccccc3)O2)c(=O)[nH]c1=O (stereo not given in full)			inactive									31.2 (≈ 41.5 µM)
Nc1nc2c(ncn2COCCO)c(=O)[nH]1 [ACYCLOVIR]		0.1		140		> 440				440	2.6	
CCCCCCCC(=O)NCC#Cc1cn([C@H]2C[C@H](O)[C@@H](COP(=O)(N[C@@H](C)C(=O)OCC)Oc3ccccc3)O2)c(=O)[nH]c1=O (stereo not given in full)			inactive									250 (≈ 377 µM)
CCCCCCCC(=O)NCC#Cc1cn([C@H]2C[C@H](O)[C@@H](COP(=O)(N[C@@H](C)C(=O)OCc3ccccc3)Oc3ccccc3)O2)c(=O)[nH]c1=O (stereo not given in full)	inactive	4	inactive	> 20	inactive	> 100	inactive	2	> 100	48	2	125 (≈ 172 µM)
CCCCCCCC(=O)NCC#Cc1cn([C@H]2C[C@H](O)[C@@H](COP(=O)(N[C@@H](C)C(=O)OCCC)Oc3ccccc3)O2)c(=O)[nH]c1=O (stereo not given in full)			inactive									125 (≈ 185 µM)
CCCCCCCC(=O)NCC#Cc1cn([C@H]2C[C@H](O)[C@@H](COP(=O)(N[C@@H](C)C(=O)OCc3ccccc3)Oc3cccc4ccccc34)O2)c(=O)[nH]c1=O (stereo not given in full)	inactive	> 100	inactive	> 20	inactive	> 100	inactive	> 100	> 100	39	8.6	250 (≈ 323 µM)
